Key:
Test in all cases: relative viability (nuclei count vs DMSO), 5 days (fraction); higher = more cells survive
[1] = compound: CCN(CCO)CCCC(C)Nc1ccnc2cc(Cl)ccc12 [Hydroxychloroquine] + Nc1ncn([C@H]2C[C@H](O)[C@@H](CO)O2)c(=O)n1 [Decitabine] (partner 2 µM)
Procedure, shortened: (§1)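 Cells from lung cancer lines were seeded into 1536-well plates and, one day later, dosed by pin tool. Treatments were either a single drug or a fixed dose of an anchor drug with five library-drug doses (not always all listed) in √10 steps. After 5 days, nuclei were stained in a one-step fixation (final 0.05% Triton X-100, 1% formaldehyde, 1 ug/ml Hoechst) and counted on 4× images, and relative viability is the treated-to-vehicle nuclei ratio, as the median of duplicate plates.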

[2] = compound: CCN(CCO)CCCC(C)Nc1ccnc2cc(Cl)ccc12 [Hydroxychloroquine] + CCNC(=O)c1noc(-c2cc(C(C)C)c(O)cc2O)c1-c1ccc(CN2CCOCC2)cc1 [Luminespib] (partner 0.01 µM)
Procedure, shortened: as §1

[3] = compound: CCN(CCO)CCCC(C)Nc1ccnc2cc(Cl)ccc12 [Hydroxychloroquine] + CS(=O)(=O)CCNCc1ccc(-c2ccc3ncnc(Nc4ccc(OCc5cccc(F)c5)c(Cl)c4)c3c2)o1 [Lapatinib] (partner 2 µM)
Procedure, shortened: as §1

[4] = compound: CCN(CCO)CCCC(C)Nc1ccnc2cc(Cl)ccc12 [Hydroxychloroquine] + O=C(c1cc(Cc2n[nH]c(=O)c3ccccc23)ccc1F)N1CCN(C(=O)C2CC2)CC1 [Olaparib] (partner 8 µM)
Procedure, shortened: as §1

Cell Line	relative viability ([1]; first compound 0.5 µM)	relative viability ([1]; first compound 1.581 µM)	relative viability ([1]; first compound 5 µM)	relative viability ([1]; first compound 15.81 µM)	relative viability ([1]; first compound 50 µM)	relative viability ([2]; first compound 0.5 µM)	relative viability ([2]; first compound 1.581 µM)	relative viability ([2]; first compound 5 µM)	relative viability ([2]; first compound 15.81 µM)	relative viability ([2]; first compound 50 µM)	relative viability ([3]; first compound 0.5 µM)	relative viability ([3]; first compound 1.581 µM)	relative viability ([3]; first compound 5 µM)	relative viability ([3]; first compound 15.81 µM)	relative viability ([3]; first compound 50 µM)	relative viability ([4]; first compound 0.5 µM)	relative viability ([4]; first compound 1.581 µM)	relative viability ([4]; first compound 5 µM)	relative viability ([4]; first compound 15.81 µM)	relative viability ([4]; first compound 50 µM)
NCI-H2087	0.265	0.258	0.242	0.219	0.294	0.187	0.195	0.175	0.19	0.329	1.11	0.907	0.942	0.946	1.11	0.596	0.709	0.683	0.756	0.511
LU99A	0.864	0.795	0.877	1.01	1.01	0.279	0.248	0.265	0.226	0.268	1.05	0.937	0.871	1.08	1.01	0.261	0.265	0.228	0.299	0.254
NCI-H1355	0.319	0.344	0.369	0.371	0.338	0.877	0.754	0.712	0.632	0.729	1.03	0.88	1.02	0.887	1.06	0.796	0.685	0.661	0.709	0.782
NCI-H596	0.954	1.02	1.12	0.966	0.993	1.09	1.03	0.959	0.993	0.958	0.969	0.995	1.04	1.05	1	0.668	0.711	0.77	0.716	0.604
NCI-H727	1.02	0.93	0.839	0.829	0.693	0.265	0.423	0.318	0.464	0.779	0.893	0.842	0.699	0.814	0.931	0.738	0.673	0.653	0.73	0.629
NCI-H661	0.584	0.587	0.564	0.528	0.567	1.02	0.926	0.85	0.915	0.922	0.433	0.426	0.43	0.467	0.465	0.782	0.695	0.743	0.684	0.69
NCI-H650	0.347	0.31	0.361	0.31	0.307	0.884	0.818	0.78	0.881	0.795	0.894	0.862	–	0.892	1.09	0.423	0.364	0.326	0.374	0.315
201T	0.858	0.834	0.852	0.864	0.844	0.992	1.04	1.07	1.03	1.05	1.05	1.02	1.02	1.02	1.05	0.788	0.821	0.826	0.857	0.829
PC-14	0.248	0.149	0.214	0.231	0.201	0.17	0.151	0.17	0.173	0.154	0.348	0.354	0.291	0.306	0.292	0.31	0.28	0.276	0.25	0.285
UMC-11	0.541	0.485	0.633	0.663	0.619	–	1.01	1.05	1.1	1.04	0.829	0.735	0.982	1.1	1.13	0.342	0.325	0.365	0.366	0.353
PC-3 [JPC-3]	0.814	0.767	0.805	0.792	0.761	0.762	0.711	0.745	0.686	0.774	0.485	0.423	0.421	0.46	0.501	1.23	1.14	1.09	1.2	1.16
LK-2	0.308	0.297	0.36	0.268	0.284	0.192	0.171	–	0.193	0.224	0.918	0.947	0.883	1.03	1.04	0.734	0.719	0.659	0.648	0.874
HCC-78	0.655	0.638	0.651	0.676	0.73	–	–	–	–	–	1.29	0.706	0.492	0.746	0.764	0.899	0.841	0.794	0.864	0.923
NCI-H441	0.23	0.326	0.241	0.245	0.228	0.361	0.334	0.328	0.417	0.329	–	–	–	–	–	0.543	0.551	0.498	0.547	0.553
HCC-366	0.314	0.348	0.315	0.316	0.34	–	–	–	–	–	0.968	1.06	1.02	1.15	1.19	0.312	0.362	0.354	0.342	0.375
LCLC-103H	0.699	0.751	0.727	0.736	0.767	0.983	0.921	1.05	1.11	1.1	–	–	–	–	–	0.754	0.688	0.84	0.766	0.78
NCI-H1563	–	–	–	–	–	0.521	0.579	0.488	0.567	0.496	0.839	0.756	0.951	0.798	0.866	–	–	–	–	–
EBC-1	–	–	–	–	–	–	–	–	–	–	0.212	0.183	0.213	0.225	0.182	0.711	0.766	0.722	0.772	0.573
Calu-6	–	–	–	–	–	–	–	–	–	–	1.05	1.18	0.991	1.02	1.01	0.65	0.607	0.615	0.673	0.569
